Reference: patent US20060024392A1, “Compositions and methods for enhancing the effectiveness of a chemotherapeutic agent” (priority 2004, published 2006)

Key:
[1] = system: colon cancer; conditions: clinical treatment of colon cancer; cited from earlier work
[2] = system: NCM460 normal colon cells; assay: Sulforhodamine B (SRB) cell growth assay in NCM460 normal colon cells; type: cell-based, human
Description: HT-29, a cell line derived from colorectal adenocarcinoma (ATCC, HTB 38), grows in McCoy's 5A medium (Biowhittaker, Inc. Walkersville, Md.). NCM460, a cell line derived from a normal human colon (InCell Corp. San Antonio, Tex.), grows in M3 Base media (InCell Corp. San Antonio, Tex.).
Both cell lines are kept at 37° C. and 5% CO2 atmosphere. Both media are supplemented with 10% fetal bovine serum (FBS, Biowhittaker, Inc. Walkersville, Md.).
Cells are fixed in situ by the gentle addition of 50 μl of cold 50% (w/v) TCA (final concentration, 10% TCA) and incubated for 60 minutes at 4° C. The supernatant is discarded, and the plates are washed five times with tap water and air dried. Sulforhodamine B (SRB) solution (100 μl) at 0.4% (w/v) in 1% acetic acid is added to each well, and plates are incubated for 10 minutes at room temperature. After staining, unbound dye is removed by washing five times with 1% acetic acid and the plates are air dried. Bound stain is subsequently solubilized with 100 μl 10 mM trizma base for 5 minutes, and the absorbance at wavelength of 490 nm was spectrophotometrically measured using a microplate reader Elx800 (Bio-Tek instruments, Inc.).
Cells were seeded in 96-well cluster tissue culture plates (Costar), containing 100 μl complete growth medium per well at densities of 5,000 cells per well. Incubated at 37° C. in a humidified tissue culture incubator. After 24 Hour, 100 μl complete medium containing 5 half-log dilutions of the 5FU from 2*10^−4 to 2*10^−6 M was added into each well (final concentrations are from 10^−4 to 10^−6 M). Six replicates were used for each concentration. Media containing 0.125% DMSO was used as control. After 48 hours of incubation with 5FU in medium, cell proliferation was assessed using the SRB assay.
Percentage growth (Growth%) is calculated as: [(Ti−Tz)/(C−Tz)]×100 [absorbance measurements at time zero (Tz), control growth (C), and test growth in the presence of drug at the different concentration levels (Ti)].
Growth inhibition of 50% (GI50) is calculated from [(Ti−Tz)/(C−Tz)]×100=50, which is the drug concentration resulting in a 50% reduction in the net protein increase (as measured by SRB staining) in control cells during the drug incubation.
Similar method as Experiment 1 was used, except cells were exposed to 5FU at concentration ranging from 10^−4.5 to 10^−7 M. Media containing 0.01% DMSO was used as control. Lower concentrations were used since it was observed that 0.1% DMSO inhibited the growth of NCM460 cells. The experiment was repeated 5 times.
The protocol was the same as Experiment 3, except cells were exposed to 5FU at concentration ranging from 10^−5 to 10^−7 M with chokeberry ARE at concentration of 5, 15.6, 50 μg monomeric anthocyanin/ml growth media. […] Differences in response are most evident at the 5 FU concentration of 10^−6 M and ARE concentration of 15.6 μg monomeric anthocyanin/ml. In normal cells, there is no difference in the percent growth by 5FU with or without ARE, whereas in colon cancer cells, growth with 5FU alone was 80% of control, and further reduced to 40% with ARE and 5 FU.

In the case of `O=c1[nH]cc(F)c(=O)[nH]1` [5FU, 5-fluorouracil], the response rate [1] is listed as 20%, the Growth % ([2]; 5FU 1.0E−4.5 M, experiment 1) is listed as 45.13% and the OD ([2]; 5FU 1.0E−4.5 M, experiment 1) is listed as 0.264. It also gave a Growth % ([2]; 5FU 1.0E−4.5 M, experiment 2) of 33.85%, an OD ([2]; 5FU 1.0E−4.5 M, experiment 2) of 0.242 and a Growth % ([2]; 5FU 1.0E−4.5 M, experiment 3) of 36.70%. The OD ([2]; 5FU 1.0E−4.5 M, experiment 3) was 0.256, the Growth % ([2]; 5FU 1.0E−5 M, experiment 1) was 53.85% and the OD ([2]; 5FU 1.0E−5 M, experiment 1) was 0.281. For the same compound, the Growth % ([2]; 5FU 1.0E−5 M, experiment 2) was 48.21%, the OD ([2]; 5FU 1.0E−5 M, experiment 2) was 0.27 and the Growth % ([2]; 5FU 1.0E−5 M, experiment 3) was 45.41%. The OD ([2]; 5FU 1.0E−5 M, experiment 3) was 0.275, the Growth % ([2]; 5FU 1.0E−5 M, experiment 4) was 57.58% and the OD ([2]; 5FU 1.0E−5 M, experiment 4) was 0.285. For the same compound, the Growth % ([2]; 5FU 1.0E−5 M, experiment 5) was 51.41%, the OD ([2]; 5FU 1.0E−5 M, experiment 5) was 0.279 and the Growth % ([2]; 5FU 1.0E−5.5 M, experiment 1) was 55.38%. For the same compound, the OD ([2]; 5FU 1.0E−5.5 M, experiment 1) was 0.284, the Growth % ([2]; 5FU 1.0E−5.5 M, experiment 2) was 67.69% and the OD ([2]; 5FU 1.0E−5.5 M, experiment 2) was 0.308. For the same compound, the Growth % ([2]; 5FU 1.0E−5.5 M, experiment 3) was 60.55%, the OD ([2]; 5FU 1.0E−5.5 M, experiment 3) was 0.308 and the Growth % ([2]; 5FU 1.0E−5.5 M, experiment 4) was 75.38%. It also gave an OD ([2]; 5FU 1.0E−5.5 M, experiment 4) of 0.332, a Growth % ([2]; 5FU 1.0E−5.5 M, experiment 5) of 72.54% and an OD ([2]; 5FU 1.0E−5.5 M, experiment 5) of 0.339. It also gave a Growth % ([2]; 5FU 1.0E−6 M, experiment 1) of 56.41%, an OD ([2]; 5FU 1.0E−6 M, experiment 1) of 0.286 and a Growth % ([2]; 5FU 1.0E−6 M, experiment 2) of 63.08%. For the same compound, the OD ([2]; 5FU 1.0E−6 M, experiment 2) was 0.299, the Growth % ([2]; 5FU 1.0E−6 M, experiment 3) was 66.06% and the OD ([2]; 5FU 1.0E−6 M, experiment 3) was 0.32. For the same compound, the Growth % ([2]; 5FU 1.0E−6 M, experiment 4) was 93.56%, the OD ([2]; 5FU 1.0E−6 M, experiment 4) was 0.38 and the Growth % ([2]; 5FU 1.0E−6 M, experiment 5) was 87.32%. It also gave an OD ([2]; 5FU 1.0E−6 M, experiment 5) of 0.381, a Growth % ([2]; 5FU 1.0E−6.5 M, experiment 1) of 59.49% and an OD ([2]; 5FU 1.0E−6.5 M, experiment 1) of 0.292. For the same compound, the Growth % ([2]; 5FU 1.0E−6.5 M, experiment 2) was 83.59%, the OD ([2]; 5FU 1.0E−6.5 M, experiment 2) was 0.339 and the Growth % ([2]; 5FU 1.0E−6.5 M, experiment 3) was 78.44%. It also gave an OD ([2]; 5FU 1.0E−6.5 M, experiment 3) of 0.347, a Growth % ([2]; 5FU 1.0E−6.5 M, experiment 4) of 97.35% and an OD ([2]; 5FU 1.0E−6.5 M, experiment 4) of 0.39. It also gave a Growth % ([2]; 5FU 1.0E−6.5 M, experiment 5) of 92.61%, an OD ([2]; 5FU 1.0E−6.5 M, experiment 5) of 0.396 and a Growth % ([2]; 5FU 1.0E−7 M, experiment 4) of 99.62%. For the same compound, the OD ([2]; 5FU 1.0E−7 M, experiment 4) was 0.396, the Growth % ([2]; 5FU 1.0E−7 M, experiment 5) was 89.79% and the OD ([2]; 5FU 1.0E−7 M, experiment 5) was 0.388.
